Measured values reported in ChEMBL document CHEMBL1201862, “PubChem BioAssay data set” (2004).
Activity calls are given as the source filed them.

Assays:
[1] = viability of PTEN-deleted HCT116 cells – cell-based, HCT116 PTEN knockout, dose response (AID 1047); assay type: functional;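 also: HCT116 colon tumor cells with PTEN knocked out; cells exposed to compound for 60 hours before readout; potency for loss of cell viability measured by luminescence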
[2] = NIH-3T3 fibroblast cytotoxicity, dose response, cytotoxicity control, cell-based, fluorescence, Alamar Blue, secondary assay (AID 2327); assay type: functional;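 also: NIH-3T3 mouse fibroblasts cultured with fluconazole at 8 µg/mL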
[3] = DRD fibroblast viability loss – cell-based, non-viral oncogenic, luminescence, dose response (AID 1934); assay type: functional; conditions: Homo sapiens
[4] = fluconazole-exposed Candida albicans growth modulators – fluorescence, retest, confirmation (AID 2467); assay type: functional, cell-based
[5] = viability of HCT116 lacking mutant beta-catenin – cell-based, human colon tumor, dose response (AID 1045); assay type: functional;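 also: HCT116 colon tumor cells with beta catenin knocked out; cells exposed to compound for 60 hours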
BJ [6] = test: growth inhibition of engineered Ras-driven BJ cells – cell-based, alamar blue fluorescence, cherrypicked samples, dose response (AID 2631); assay type: functional; conditions: Homo sapiens;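 also: confirmatory dose-response assay in RAS-dependent BJ fibroblasts engineered with TERT, LT and ST, with cytotoxicity read by fluorescence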
BJ [7] = test: BJ-TERT fibroblast viability loss – cell-based, RAS-independent, luminescence, dose response (AID 1933); assay type: functional; conditions: Homo sapiens
BJ [8] = test: cells; assay type: functional, cell-based; conditions: Homo sapiens
BJ [9] = test: BJ-TERT-LT-ST fibroblast viability loss – cell-based, RAS-independent, luminescence, dose response (AID 1935); assay type: functional; conditions: Homo sapiens;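 also: BJ fibroblasts immortalized with TERT plus LT and ST oncogenes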
[10] = molecular target: T1, Rac GTPase-activating protein 1 (Homo sapiens, UniProt Q9H0H5); test: blockers of MgcRacGAP-driven Rac1 GTP hydrolysis – biochemical, ADP Hunter fluorescence, primary and confirmatory, confirmation (AID 624330); assay type: functional
T1 sequence (Q9H0H5 whole entry): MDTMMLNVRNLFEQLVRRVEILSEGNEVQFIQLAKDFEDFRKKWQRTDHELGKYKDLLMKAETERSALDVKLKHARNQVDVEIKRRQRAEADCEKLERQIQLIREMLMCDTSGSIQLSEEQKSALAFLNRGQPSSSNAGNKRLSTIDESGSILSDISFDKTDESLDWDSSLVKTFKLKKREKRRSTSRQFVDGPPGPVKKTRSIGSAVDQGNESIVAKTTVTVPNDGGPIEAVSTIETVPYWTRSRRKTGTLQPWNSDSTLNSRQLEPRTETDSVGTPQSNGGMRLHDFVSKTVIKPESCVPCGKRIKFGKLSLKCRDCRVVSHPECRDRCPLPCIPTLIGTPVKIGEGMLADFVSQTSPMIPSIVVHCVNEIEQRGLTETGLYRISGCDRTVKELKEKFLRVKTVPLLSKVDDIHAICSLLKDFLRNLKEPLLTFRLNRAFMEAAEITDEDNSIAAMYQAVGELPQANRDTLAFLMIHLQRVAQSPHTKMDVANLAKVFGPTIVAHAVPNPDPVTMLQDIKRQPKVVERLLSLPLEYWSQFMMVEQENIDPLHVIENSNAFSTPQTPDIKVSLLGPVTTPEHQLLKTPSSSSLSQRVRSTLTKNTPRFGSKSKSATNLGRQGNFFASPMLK

Caspase-3 = molecular target: T2, Caspase-3 (Homo sapiens, UniProt P42574); assay type: functional;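 also: Dose-response selectivity test against caspase-3 for candidate inhibitors of sentrin-specific proteases (SENPs)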
T2 sequence (P42574 whole entry): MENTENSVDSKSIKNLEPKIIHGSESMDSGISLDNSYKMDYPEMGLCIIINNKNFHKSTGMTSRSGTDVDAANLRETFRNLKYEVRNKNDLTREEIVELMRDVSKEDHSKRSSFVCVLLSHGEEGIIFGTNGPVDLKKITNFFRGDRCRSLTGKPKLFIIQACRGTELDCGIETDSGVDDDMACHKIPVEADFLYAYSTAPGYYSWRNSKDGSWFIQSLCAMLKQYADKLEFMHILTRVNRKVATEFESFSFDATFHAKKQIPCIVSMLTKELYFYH

HeLa = test: ATP-based viability loss in HeLa cells – cell-based, CellTiter-Glo luminescence, cherry-pick samples, cytotoxicity control for MITF activator project, dose response (AID 540259); assay type: functional; conditions: Homo sapiens
[11] = molecular target: T3, Sentrin-specific protease 6 (Homo sapiens, UniProt Q9GZR1); assay type: functional;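 also: Luminescence-based dose-response confirmatory assay of SENP6 inhibition, following up an ultra-high-throughput screen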
T3 sequence (Q9GZR1 whole entry): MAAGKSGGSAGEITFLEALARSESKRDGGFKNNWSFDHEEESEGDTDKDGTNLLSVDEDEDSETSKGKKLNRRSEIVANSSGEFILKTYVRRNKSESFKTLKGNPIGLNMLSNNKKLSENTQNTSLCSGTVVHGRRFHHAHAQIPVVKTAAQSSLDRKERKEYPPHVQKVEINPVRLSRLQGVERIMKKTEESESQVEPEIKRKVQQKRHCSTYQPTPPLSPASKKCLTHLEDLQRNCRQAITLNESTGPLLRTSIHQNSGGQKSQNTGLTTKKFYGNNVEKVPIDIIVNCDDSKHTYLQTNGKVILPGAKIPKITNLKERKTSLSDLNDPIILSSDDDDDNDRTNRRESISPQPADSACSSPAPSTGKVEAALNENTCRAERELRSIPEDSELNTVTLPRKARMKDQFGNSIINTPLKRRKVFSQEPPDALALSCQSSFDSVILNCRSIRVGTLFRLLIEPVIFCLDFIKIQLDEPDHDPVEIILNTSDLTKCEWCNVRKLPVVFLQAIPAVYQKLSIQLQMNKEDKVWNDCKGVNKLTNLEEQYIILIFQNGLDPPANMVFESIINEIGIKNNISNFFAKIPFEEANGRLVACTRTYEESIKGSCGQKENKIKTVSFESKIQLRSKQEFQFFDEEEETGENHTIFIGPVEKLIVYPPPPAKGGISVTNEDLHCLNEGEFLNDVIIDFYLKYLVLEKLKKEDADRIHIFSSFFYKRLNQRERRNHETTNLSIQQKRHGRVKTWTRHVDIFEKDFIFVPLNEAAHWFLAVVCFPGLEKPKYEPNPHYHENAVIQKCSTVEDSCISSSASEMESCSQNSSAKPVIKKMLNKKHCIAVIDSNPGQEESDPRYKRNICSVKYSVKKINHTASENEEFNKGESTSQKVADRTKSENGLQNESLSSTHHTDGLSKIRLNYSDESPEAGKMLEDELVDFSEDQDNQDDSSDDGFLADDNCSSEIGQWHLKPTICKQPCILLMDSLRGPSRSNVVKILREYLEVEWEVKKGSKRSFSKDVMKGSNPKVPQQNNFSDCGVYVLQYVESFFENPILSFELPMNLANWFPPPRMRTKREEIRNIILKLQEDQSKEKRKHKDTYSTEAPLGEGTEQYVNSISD

[12] = molecular target: T4, Sentrin-specific protease 7 (Homo sapiens, UniProt Q9BQF6); assay type: functional;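 also: Luminescence-based dose-response confirmation of ultra-high-throughput screening hits, measuring inhibition of SENP7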
T4 sequence (Q9BQF6 whole entry): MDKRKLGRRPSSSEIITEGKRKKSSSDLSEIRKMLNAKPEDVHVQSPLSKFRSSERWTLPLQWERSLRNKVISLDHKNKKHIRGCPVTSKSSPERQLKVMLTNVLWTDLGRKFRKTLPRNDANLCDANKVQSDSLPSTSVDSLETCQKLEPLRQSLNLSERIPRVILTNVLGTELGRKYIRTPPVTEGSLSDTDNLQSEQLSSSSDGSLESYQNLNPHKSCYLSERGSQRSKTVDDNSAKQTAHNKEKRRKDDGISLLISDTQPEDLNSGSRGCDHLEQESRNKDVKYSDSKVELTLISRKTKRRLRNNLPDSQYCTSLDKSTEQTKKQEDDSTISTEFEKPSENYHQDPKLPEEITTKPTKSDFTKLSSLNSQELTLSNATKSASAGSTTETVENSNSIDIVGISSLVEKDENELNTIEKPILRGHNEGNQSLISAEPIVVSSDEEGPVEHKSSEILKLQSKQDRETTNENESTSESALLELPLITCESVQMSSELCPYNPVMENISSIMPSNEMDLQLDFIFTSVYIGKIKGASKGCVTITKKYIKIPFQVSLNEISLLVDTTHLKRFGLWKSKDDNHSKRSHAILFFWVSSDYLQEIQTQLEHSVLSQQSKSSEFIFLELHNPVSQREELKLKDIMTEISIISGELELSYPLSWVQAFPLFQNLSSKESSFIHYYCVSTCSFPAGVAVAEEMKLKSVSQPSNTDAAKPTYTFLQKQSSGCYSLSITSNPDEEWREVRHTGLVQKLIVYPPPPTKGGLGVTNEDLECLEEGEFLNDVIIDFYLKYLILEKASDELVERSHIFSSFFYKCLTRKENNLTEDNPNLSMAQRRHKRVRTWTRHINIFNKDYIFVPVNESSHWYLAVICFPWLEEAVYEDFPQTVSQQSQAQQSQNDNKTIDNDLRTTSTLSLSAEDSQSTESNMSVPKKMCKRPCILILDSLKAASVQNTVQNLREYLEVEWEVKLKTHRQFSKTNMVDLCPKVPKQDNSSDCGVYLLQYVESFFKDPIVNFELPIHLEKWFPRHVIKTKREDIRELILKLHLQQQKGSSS

[13] = molecular target: T5, Sentrin-specific protease 8 (Homo sapiens, UniProt Q96LD8); assay type: functional;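 also: luminescence read-out of SENP8 inhibition, dose-response confirmation following an ultra-high-throughput screen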
T5 sequence (Q96LD8 whole entry): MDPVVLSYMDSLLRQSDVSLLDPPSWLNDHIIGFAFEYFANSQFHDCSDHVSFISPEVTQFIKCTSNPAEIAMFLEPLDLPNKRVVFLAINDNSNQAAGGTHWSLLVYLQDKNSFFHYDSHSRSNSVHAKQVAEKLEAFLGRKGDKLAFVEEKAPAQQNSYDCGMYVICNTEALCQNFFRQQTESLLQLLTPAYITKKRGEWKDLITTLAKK

HEK293 = test: EBV LMP1 TES2 canonical NF-kB signalling blockers – cell-based, HEK293, luciferase, cherry-pick, dose response (AID 588343); assay type: functional; conditions: Homo sapiens

**Q.** What does the source list for O=c1c2ccccc2nc(/C=C/c2ccc([N+](=O)[O-])o2)n1CCCO?
**A.** EC50 [1]: < 59 nM (active); EC50 [2]: 7.14 µM (inconclusive); EC50 [3]: 5.06 µM (inconclusive); EC50 [4]: 503 nM (active); EC50 [5]: < 59 nM (active); EC50 (BJ [6]): 3.07 µM (active); EC50 (BJ [7]): 6.12 µM (inconclusive); EC50 (BJ [8]): 7.21 µM (inconclusive); EC50 (BJ [9]): 3.96 µM (active)

**Q.** Which results are given for CCN(CC)c1ccc(Nc2nc(-c3cccnc3)cs2)cc1?
**A.** IC50 [10]: 185 µM (active); IC50 (Caspase-3): 21.5 µM (active); AC50 (HeLa): 77 µM (active); IC50 [11]: 16.9 µM (active); IC50 [12]: 4.32 µM (active); IC50 [13]: 26.7 µM (active)

**Q.** For COc1ccc(C=NNc2nc3ccccc3s2)cc1, which AC50 (HEK293) is on record?
**A.** The AC50 was 2.96 µM (active).
